Experimental data taken from US10072017B2, “Compounds and methods for the treatment of cystic fibrosis” (Flatley Discovery Lab, LLC, priority 2015, dated 2018).

Target: T1, CFTR (Homo sapiens, UniProt P13569, DEL508-508)
T1 construct: Primary CF airway epithelial cells were obtained from the UNC Cystic Fibrosis Tissue Procurement and Cell Culture Core; host or cells: primary CF airway epithelial cells
Experiment: Equivalent current assay in Primary CF airway epithelial cells (NAUC)
Assay type: cell-based
Conditions: 24 h, normalized to VX809 (3 μM) positive control; for Nauc @ 3 μM: 3 μM test compound; for Nauc @ 10 μM: 10 μM test compound
Experimental: Primary CF airway epithelial cells were obtained from the UNC Cystic Fibrosis Tissue Procurement and Cell Culture Core. The cells are grown at 37° C. in a Heracell 150i incubator using growth media (BEGM, Fischer). Cells were then transferred to differentiation media (ALI, UNC) for a minimum of 4 weeks on coated Costar snapwells. Two days before the Ussing assay the mucus on the apical surface of the cells was aspirated after incubating with 200 μL of differentiation Media for at least thirty (30) minutes. One day before the Ussing assay test compounds were added to the basolateral surface of the cells at various test concentrations dissolved in DMSO. Duplicate wells were prepared giving a n=3 or n=4 protocol.
Cells were treated for 24 hours with various combinations and concentrations of the test articles, reference standard (3 μM VX809, positive control). Compounds stock solutions were prepared in DMSO and diluted 1/1000 into ALI media to their final assay concentration. Cells were treated with combination solutions (2 mL of each dilution) and incubated at 37° C. for 24 h.
For the equivalent current assay, cells on four Transwell (24-well) plates were treated. Each Transwell plate was filled with 200 μl of HBS on the apical surface and 2 ml on the basolateral surface. Plates were placed horizontally in a heated mount at 37° C., and equilibrated for several minutes. Resting current was measured for 15 min and then blocked by the apical addition of 5 μM benzamil. After 20 min, 10 μM forskolin and 1 μM VX770 were added to both the apical and basolateral side to stimulate CFTR. An increase in chloride current is seen as an upward deflection of the trace. After another 30 min, CFTR-172 (a CFTR inhibitor, 20 μM) and/or bumetanide (20 uM) was added to block CFTR mediated chloride current.
The raw data, current vs. time for the Ussing chamber (sampling interval: 10 s) and voltage vs. time and resistance vs. time for the equivalent current assay (sampling interval: 5 minutes) were transferred to Excel (Microsoft Office Professional, version 14.0.7106.5003) for analysis. CFTR specific current was measured as the average amplitude of the increase in current elicited upon addition forskolin and ending upon addition of the CFTR channel specific blocker CFTR-172. This average is equivalent to the sum of the average forskolin activated and the average VX770-potentiated currents. The average current measured in vehicle (0.1% DMSO) treated cells, Iv, was subtracted from the current for the test article, ITA, or from the corrector reference standard VX809 (3 uM ISTD. For replicate measurements, the average vehicle subtracted response for the test article, was normalized to the average vehicle subtracted inhibitor response of the reference corrector VX809 (3 μM). INSC=(ITA−IV)(ave)/(ISTD−IV)(ave) (Equation 1)
A second endpoint, for the equivalent current assay, evaluated was NAUC, the normalized area under the curve (AUC) measuring the response after addition of forskolin and VX770 to the time point right before the addition of the CFTR inhibitor. The AUC is effectively the average response multiplied by the duration of the response. The AUC of the test article, AUCTA was then corrected by subtracting the average vehicle response, AUCV,ave over the same time range, and normalized as for the inhibitor-sensitive current to the difference of the corrector reference standard VX809 (3 μM VX809r,ave and the vehicle response: NAUCTA=[AUCTA−AUCV,ave]/[AUCVx809r,ave−AUCV,ave] (Equation 2).
The normalized value for DMSO is 0.0 and for VX-809 alone is 1.0. Combinations of compounds with VX-809 that give normalized values greater than 1.0 show activity in the combination assay. A value of 2 means the test compound doubles the effect to VX-809 alone.
Experiments were run with a minimum of n=4 replicates per concentration. […]

T1 sequence (P13569 with tags, fused parts or gaps DEL508-508): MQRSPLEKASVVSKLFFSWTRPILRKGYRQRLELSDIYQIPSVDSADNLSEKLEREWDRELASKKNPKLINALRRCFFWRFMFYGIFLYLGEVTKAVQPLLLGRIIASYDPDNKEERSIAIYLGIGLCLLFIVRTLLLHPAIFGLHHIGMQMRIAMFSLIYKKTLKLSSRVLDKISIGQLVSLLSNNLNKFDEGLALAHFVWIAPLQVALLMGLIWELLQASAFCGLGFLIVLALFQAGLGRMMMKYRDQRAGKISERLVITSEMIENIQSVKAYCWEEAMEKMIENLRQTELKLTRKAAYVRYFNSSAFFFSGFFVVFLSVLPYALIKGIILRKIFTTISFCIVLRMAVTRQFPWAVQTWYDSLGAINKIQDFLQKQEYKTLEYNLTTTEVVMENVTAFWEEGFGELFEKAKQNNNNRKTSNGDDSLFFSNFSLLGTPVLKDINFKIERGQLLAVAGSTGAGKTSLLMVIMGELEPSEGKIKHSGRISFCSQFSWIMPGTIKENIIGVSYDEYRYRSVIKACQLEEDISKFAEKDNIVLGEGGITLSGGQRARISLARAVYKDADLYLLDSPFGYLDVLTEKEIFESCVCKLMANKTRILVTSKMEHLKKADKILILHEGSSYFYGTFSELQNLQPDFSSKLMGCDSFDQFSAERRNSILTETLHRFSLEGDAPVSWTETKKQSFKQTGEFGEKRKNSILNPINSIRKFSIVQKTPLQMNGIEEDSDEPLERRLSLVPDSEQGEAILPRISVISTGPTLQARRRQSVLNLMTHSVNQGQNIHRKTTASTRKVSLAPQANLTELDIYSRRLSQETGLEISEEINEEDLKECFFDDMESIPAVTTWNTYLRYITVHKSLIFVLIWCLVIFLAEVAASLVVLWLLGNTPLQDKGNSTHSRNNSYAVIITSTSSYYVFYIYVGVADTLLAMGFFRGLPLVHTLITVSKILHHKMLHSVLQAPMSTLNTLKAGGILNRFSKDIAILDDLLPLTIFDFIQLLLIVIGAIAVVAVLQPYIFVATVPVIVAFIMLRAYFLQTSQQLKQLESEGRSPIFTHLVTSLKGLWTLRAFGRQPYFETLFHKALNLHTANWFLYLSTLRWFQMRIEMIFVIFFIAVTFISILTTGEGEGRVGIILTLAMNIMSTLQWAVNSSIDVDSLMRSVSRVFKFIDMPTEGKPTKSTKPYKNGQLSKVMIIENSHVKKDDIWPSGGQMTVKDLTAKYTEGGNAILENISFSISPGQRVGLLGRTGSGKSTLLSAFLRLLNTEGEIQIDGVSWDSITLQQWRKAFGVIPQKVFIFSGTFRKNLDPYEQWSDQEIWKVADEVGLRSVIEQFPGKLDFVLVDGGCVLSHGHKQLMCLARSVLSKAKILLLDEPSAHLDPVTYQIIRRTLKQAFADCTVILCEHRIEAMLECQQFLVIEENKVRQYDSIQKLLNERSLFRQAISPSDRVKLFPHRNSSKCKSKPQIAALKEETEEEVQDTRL

SMILES | Nauc @ 3 μM | Nauc @ 10 μM
O=C1[C@H]2[C@H]3CCCN3[C@]3(C(=O)Nc4c(Cl)cc(Cl)cc43)[C@H]2C(=O)N1c1cc(Cl)cc(Cl)c1 (single isomer, unassigned) [Example 1] | +++ (NAUC “+++” refers to an observed NAUC >170% of positive control) | +++ (NAUC “+++” refers to an observed NAUC >170% of positive control)
O=C1[C@H]2[C@H]3C[C@H](O)CN3[C@]3(C(=O)Nc4c(Cl)cc(Cl)cc43)[C@H]2C(=O)N1c1cc(Cl)cc(Cl)c1 (single isomer, unassigned) [Example 2] | +++ (NAUC “+++” refers to an observed NAUC >170% of positive control) | +++ (NAUC “+++” refers to an observed NAUC >170% of positive control)
O=C1C2C3CCCN3C3(C(=O)Nc4c(Cl)cc(Cl)cc43)C2C(=O)N1c1cc(Cl)cc(Cl)n1 (single isomer, unassigned) [Example 3, 5,7-Dichloro-2′-(4,6-dichloropyridin-2-yl)-3a′,6′,7′,8′,8a′,8b′-hexahydro-1′H-spiro[indoline-3,4′-pyrrolo[3,4-a]pyrrolizine]-1′,2,3′(2′H)-trione] | +++ (NAUC “+++” refers to an observed NAUC >170% of positive control) | +++ (NAUC “+++” refers to an observed NAUC >170% of positive control)
COc1c(Cl)cc(N2C(=O)C3C4CC(C)(C)CN4C4(C(=O)Nc5c(Cl)cc(Cl)cc54)C3C2=O)cc1Cl (single isomer, unassigned) [Example 4, 5,7-dichloro-2′-(3,5-dichloro-4-methoxyphenyl)-7′,7′-dimethyl-3a′,6′,7′,8′,8a′,8b′-hexahydro-1′H-spiro[indoline-3,4′-pyrrolo[3,4-a]pyrrolizine]-1′,2,3′(2′H)-trione] | +++ (NAUC “+++” refers to an observed NAUC >170% of positive control) | ++ (NAUC “++” refers to an observed NAUC 170-140% of positive control)
[2H]C12C(=O)N(c3cc(Cl)cc(Cl)c3)C(=O)C1([2H])C1(C(=O)Nc3c(Cl)cc(Cl)cc31)N1C[C@@H](O)CC12 (single isomer, unassigned) [Example 5, (7′S)-5,7-Dichloro-2′-(3,5-dichlorophenyl)-7′-hydroxy-3a′,6′,7′,8′,8a′,8b′-hexahydro-1′H-spiro[indoline-3,4′-pyrrolo[3,4-a]pyrrolizine]-1′,2,3′(2′H)-trione-3a′,8b′-d2] | +++ (NAUC “+++” refers to an observed NAUC >170% of positive control) | +++ (NAUC “+++” refers to an observed NAUC >170% of positive control)
COc1cc(Cl)cc(N2C(=O)C3C4C[C@H](F)CN4C4(C(=O)Nc5c(Cl)cc(Cl)cc54)C3C2=O)c1 (single isomer, unassigned) [Example 6, (7′S)-5,7-Dichloro-2′-(3-chloro-5-methoxyphenyl)-7′-fluoro-3a′,6′,7′,8′,8a′,8b′-hexahydro-1′H-spiro[indoline-3,4′-pyrrolo[3,4-a]pyrrolizine]-1′,2,3′(2′H)-trione] | +++ (NAUC “+++” refers to an observed NAUC >170% of positive control) | +++ (NAUC “+++” refers to an observed NAUC >170% of positive control)
O=C1[C@H]2[C@@H](C(=O)N1c1cc(Cl)cc(Cl)c1)[C@]1(C(=O)Nc3c(Cl)cc(Cl)cc31)N1CCC[C@@H]21 (single isomer, unassigned) [Example 13] | +++ (NAUC “+++” refers to an observed NAUC >170% of positive control) | +++ (NAUC “+++” refers to an observed NAUC >170% of positive control)
O=C1C2C3CCCN3C3(C(=O)Nc4c(Cl)cc(Cl)cc43)C2C(=O)N1c1cccc(C(F)(F)F)c1 (single isomer, unassigned) [Example 24] | +++ (NAUC “+++” refers to an observed NAUC >170% of positive control) | +++ (NAUC “+++” refers to an observed NAUC >170% of positive control)
O=C1C2C3C[C@H](O)CN3C3(C(=O)Nc4c(Cl)cc(Cl)cc43)C2C(=O)N1c1cc(Cl)cc(Cl)c1 (single isomer, unassigned) [Example 46] | ++ (NAUC “++” refers to an observed NAUC 170-140% of positive control) | + (NAUC “+” refers to an observed NAUC <140% of positive control)
O=C1C2C3C[C@H](O)CN3C3(C(=O)Nc4ccc(C(F)(F)F)cc43)C2C(=O)N1c1cc(Cl)cc(Cl)c1 (single isomer, unassigned) [Example 50] | ++ (NAUC “++” refers to an observed NAUC 170-140% of positive control) | + (NAUC “+” refers to an observed NAUC <140% of positive control)
O=C1C2C3C[C@H](O)CN3C3(C(=O)Nc4c(Br)cc(Br)cc43)C2C(=O)N1c1cc(Cl)cc(Cl)c1 (single isomer, unassigned) [Example 51] | +++ (NAUC “+++” refers to an observed NAUC >170% of positive control) | ++ (NAUC “++” refers to an observed NAUC 170-140% of positive control)
CC12C(=O)N(c3cc(Cl)cc(Cl)c3)C(=O)C1C1(C(=O)Nc3c(Cl)cc(Cl)cc31)N1CCCC12 (single isomer, unassigned) [Example 54] | ++ (NAUC “++” refers to an observed NAUC 170-140% of positive control) | + (NAUC “+” refers to an observed NAUC <140% of positive control)
O=C1C2C3C[C@H](O)CN3C3(C(=O)Nc4c(Cl)cc(Cl)cc43)C2C(=O)N1c1cc(Br)cc(Br)c1 (single isomer, unassigned) [Example 56] | ++ (NAUC “++” refers to an observed NAUC 170-140% of positive control) | +++ (NAUC “+++” refers to an observed NAUC >170% of positive control)
O=C1C2C3C[C@H](NS(=O)(=O)c4ccccc4)CN3C3(C(=O)Nc4c(Cl)cc(Cl)cc43)C2C(=O)N1c1cc(Cl)cc(Cl)c1 (single isomer, unassigned) [Example 58] | ++ (NAUC “++” refers to an observed NAUC 170-140% of positive control) | +++ (NAUC “+++” refers to an observed NAUC >170% of positive control)
O=C1C2C3C[C@H](O)CN3C3(C(=O)Nc4ccc(C(F)(F)F)cc43)C2C(=O)N1c1cc(Cl)cc(Cl)c1 (single isomer, unassigned) [Example 61] | +++ (NAUC “+++” refers to an observed NAUC >170% of positive control) | +++ (NAUC “+++” refers to an observed NAUC >170% of positive control)
O=C1C2C3C[C@H](O)CN3C3(C(=O)Nc4c(Cl)cc(Cl)cc43)C2C(=O)N1c1cc(C(F)(F)F)cc(C(F)(F)F)c1 (single isomer, unassigned) [Example 62] | ++ (NAUC “++” refers to an observed NAUC 170-140% of positive control) | ++ (NAUC “++” refers to an observed NAUC 170-140% of positive control)
O=C1C2C3CCCN3C3(C(=O)Nc4c(Cl)cc(Cl)cc43)C2C(=O)N1c1cc(Cl)cc(Cl)n1 (single isomer, unassigned) [Example 67] | +++ (NAUC “+++” refers to an observed NAUC >170% of positive control) | +++ (NAUC “+++” refers to an observed NAUC >170% of positive control)
[2H]C12C(=O)N(c3cc(Cl)cc(Cl)c3)C(=O)C1([2H])C1(C(=O)Nc3c(Cl)cc(Cl)cc31)N1CCCC12 (single isomer, unassigned) [Example 70] | +++ (NAUC “+++” refers to an observed NAUC >170% of positive control) | +++ (NAUC “+++” refers to an observed NAUC >170% of positive control)
